Numbers after ± are expanded uncertainties.
Legend:
[1] = molar heat capacity at constant pressure; xn = mol fraction of the nth substance listed; conditions: 101.3 kPa, Liquid, Small sample (50 mg) DSC, x2 = 0
[2] = xn = mol fraction of the nth substance listed; conditions: 101.3 kPa, Liquid, x2 = 0
[3] = 101.33 kPa, Liquid
[4] = molar heat capacity at constant pressure; conditions: 298.15 K; 101.33 kPa; Liquid; Small sample (50 mg) DSC

## O [water] + OCCCCO
[1]; 293.15 K
  molar heat capacity at constant pressure: 75.2 ± 1.5 J/K/mol
[1]; 303.15 K
  molar heat capacity at constant pressure: 75.3 ± 1.5 J/K/mol
[1]; 313.15 K
  molar heat capacity at constant pressure: 75.2 ± 1.5 J/K/mol
[1]; 323.15 K
  molar heat capacity at constant pressure: 75.2 ± 1.5 J/K/mol
[1]; 333.15 K
  molar heat capacity at constant pressure: 75.2 ± 1.5 J/K/mol
[1]; 343.15 K
  molar heat capacity at constant pressure: 75.3 ± 1.5 J/K/mol
[1]; 353.15 K
  molar heat capacity at constant pressure: 75.4 ± 1.5 J/K/mol
[2]; 293.15 K
  viscosity: 1.002 ± 0.099 mPa·s
[2]; 303.15 K
  viscosity: 0.797 ± 0.081 mPa·s
[2]; 313.15 K
  viscosity: 0.653 ± 0.069 mPa·s
[2]; 323.15 K
  mass density: 988.05 ± 0.29 kg/m3
  viscosity: 0.547 ± 0.06 mPa·s
[2]; 333.15 K
  mass density: 983.21 ± 0.3 kg/m3
  viscosity: 0.467 ± 0.053 mPa·s
[2]; 343.15 K
  mass density: 977.79 ± 0.32 kg/m3
  viscosity: 0.405 ± 0.047 mPa·s
[2]; 353.15 K
  mass density: 971.83 ± 0.34 kg/m3
  viscosity: 0.356 ± 0.043 mPa·s

## OCCCCO [1,4-butanediol]
[3]; 293.15 K
  mass density: 1015.76 ± 0.35 kg/m3
  viscosity: 90.33 ± 7.4 mPa·s
[3]; 298.15 K
  mass density: 1012.68 ± 0.34 kg/m3
  viscosity: 71.15 ± 3.5 mPa·s
[3]; 303.15 K
  mass density: 1009.54 ± 0.33 kg/m3
  viscosity: 55.98 ± 0.93 mPa·s
[3]; 308.15 K
  mass density: 1006.43 ± 0.32 kg/m3
  viscosity: 44.44 ± 1.5 mPa·s
[3]; 313.15 K
  mass density: 1003.37 ± 0.31 kg/m3
  viscosity: 35.74 ± 1.2 mPa·s
[3]; 318.15 K
  mass density: 1000.45 ± 0.3 kg/m3
  viscosity: 29.11 ± 0.97 mPa·s
[3]; 323.15 K
  mass density: 997.14 ± 0.31 kg/m3
  viscosity: 23.63 ± 0.8 mPa·s
[3]; 328.15 K
  mass density: 994.02 ± 0.32 kg/m3
  viscosity: 19.68 ± 0.68 mPa·s
[3]; 333.15 K
  mass density: 990.93 ± 0.33 kg/m3
  viscosity: 16.17 ± 0.57 mPa·s
[3]; 338.15 K
  mass density: 987.93 ± 0.33 kg/m3
  viscosity: 13.65 ± 0.49 mPa·s
[3]; 343.15 K
  mass density: 984.81 ± 0.34 kg/m3
  viscosity: 11.45 ± 0.42 mPa·s
[3]; 348.15 K
  mass density: 981.7 ± 0.35 kg/m3
  viscosity: 9.778 ± 0.37 mPa·s
[3]; 353.15 K
  mass density: 978.59 ± 0.36 kg/m3
  viscosity: 8.28 ± 0.32 mPa·s
[3]; 363.15 K
  mass density: 972.71 ± 0.38 kg/m3
  viscosity: 6.213 ± 0.26 mPa·s
[4]
  molar heat capacity at constant pressure: 200.9 ± 4 J/K/mol
